# Values joined by “and” are separate entries in the source; they are usually repeats but may differ in a detail not shown here. Identical values can stand only once.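 Step 1: Grow cells in 96-well plates. Step 2: Expose to compound for 48 hours at 5 concentrations. Step 3: Interpolate endpoints linearly; if unreached, use highest concentration. At the GI50, growth is halved. TGI: total growth inhibition.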
# System: MDA-MB-468 breast
# Test: NCI anticancer screen, dose series, 48 h
SMILES,GI50,TGI
O=C(Nc1ccc(Br)cc1)c1ccc(Cl)c(Cl)c1,7500 nM,> 100 µM
CCc1ccccc1NC(=O)c1sc2nc3c(cc2c1N)C(=O)CCC3,235 nM,44.7 µM
Nc1nc(SN=Nc2ccc(S(N)(=O)=O)cc2)c2[nH]cnc2n1,284 nM,4.11 µM
COc1cc2c3c(n(CCCN4CCC[C@H]4C(N)=O)c(=O)c2cc1OC)-c1cc2c(cc1C3=O)OCO2,45.6 nM,0.316 µM
O=C(COc1ccc(/C=C2\CSc3ccccc3C2=O)cc1)Nc1nccs1,1840 nM,4 µM
CC(C)N=c1cc2n(-c3ccc(Cl)cc3)c3ccccc3nc-2cc1Nc1ccc(Cl)cc1,560 nM,1.67 µM
O=C(/C=C/c1cc(CN2CCOCC2)c(O)c2ncccc12)c1cc(CN2CCOCC2)c(O)c2ncccc12,34.6 nM,0.683 µM
CN(CCCNC(=O)Cc1ccc2ccc3cccc4ccc1c2c34)CCCNc1cc(-c2ccc3ccccc3c2)nc2ccccc12,1420 nM,2.75 µM
Cc1ccc(S(=O)(=O)NCCNc2nccc(-c3c(-c4ccc(F)cc4)nc4sccn34)n2)cc1,4200 nM,> 100 µM
NC(CS/C(Cl)=C/Cl)C(=O)O (stereo unspecified),2990 nM,16.7 µM
CC(C)S(=O)(=O)c1ccccc1Nc1nc(Nc2cccc(NC(=O)CN)c2)ncc1Cl,99.9 nM,1.86 µM
COc1ccc(-c2oc3cc(O)c(OC)c(O)c3c(=O)c2OC)cc1O,312 nM,4.14 µM
CCC(C)(C)c1ccc(OCCCCCCN2CCNCC2)cc1,1760 nM,3.47 µM
O=C(O)c1ccc(-n2c(=O)n(-c3cccc(C(F)(F)F)c3)c(=O)c3cc(-c4ccc(F)cc4F)ccc32)cc1,2160 nM,5.94 µM
COc1ccc2c(c1)C(C)Cc1c(ncnc1-n1c(C)nc3ccccc31)N2C (stereo unspecified),3050 nM,20.5 µM
COc1cc(C2=C(c3cn(C)c4ccccc34)COC2=O)cc(OC)c1OC,31.9 nM,0.38 µM
CCn1c(CO)nn(-c2cc(O[C@@H](C)C(F)(F)F)c(C(=O)Nc3c(F)cccc3Cl)cc2F)c1=O,3280 nM,> 72.3 µM

SMILES,GI50,TGI
O=C(Nc1ccc(-n2cc(-c3ccncc3)c(-c3ccc(Cl)c(O)c3)n2)cc1)Nc1ccc(Cl)c(C(F)(F)F)c1,1460 nM,3.4 µM
C[C@]12CC[C@@H]3c4ccc(O)cc4CC[C@H]3[C@@H]1CC[C@@H]2NS(=O)(=O)c1cccc(F)c1,2420 nM,9.25 µM
Cn1cc(C2=C(c3cn(CCCCCN)c4ccccc34)C(=O)NC2=O)c2ccccc21,7540 nM,> 25 µM
COc1cc2c(c(OC)n1)[C@]1(O)[C@H](O)[C@H](CN(C)C)[C@@H](c3ccccc3)[C@]1(c1ccc(C#N)cc1)O2,< 15.7 nM and 15.8 nM,0.482 µM and 1.44 µM
COc1ccc2ncn(-c3cc(O[C@H](C)c4ccccc4Cl)c(C(N)=O)s3)c2c1,6.67 nM,0.04 µM
COc1cc2ncn(-c3cc(OCCc4ccccc4)c(C(N)=O)s3)c2cc1OC,3350 nM,24.2 µM
Cc1cc[c-]cc1.Fc1c[c-]c(-c2ccccn2)c(F)c1.[Pt+2].c1ccc(P(C[PH+](c2ccccc2)c2ccccc2)c2ccccc2)cc1,1550 nM,5.55 µM
COc1cc(OC)c(S(N)(=O)=O)cc1C(=O)/C=C/c1ccc(Cl)cc1,1450 nM,3.08 µM
Cc1cc(N/N=C/c2nc(-c3ccc(Br)cc3)oc2C)c2cc(Br)ccc2n1,1750 nM,4.85 µM
COCCOc1cnc2ccn([C@H](C)c3nnc4c(F)cc(-c5cnn(C)c5)cn34)c(=O)c2c1,> 100000 nM,> 100 µM
NC(N)=NCCCCCNc1noc(Cc2c[nH]c3cc(Br)ccc23)n1,2010 nM,7.04 µM
C[C@]12CCc3nc(Nc4ccccc4)sc3C1=CC[C@@H]1[C@@H]2CC[C@]2(C)/C(=N/NC(N)=S)CC[C@@H]12,1870 nM,5.38 µM
CN1CCN(c2ccc(Nc3nc(NCCCNS(=O)(=O)c4ccc(Cl)cc4)c4sccc4n3)cc2)CC1,4030 nM,16.3 µM
CC(=O)O[C@H](C[C@H](C(C)C)N(C)C(=O)[C@@H](NC(=O)[C@H]1CCCCN1C)C(C)C)c1nc(C(=O)N[C@@H](Cc2ccccc2)C[C@H](C)C(=O)O)c(CCOCc2ccccc2)s1,< 1 nM,> 10 µM
C=C1C(=O)O[C@H]2[C@H]1CC/C(COC(=O)c1ccc(Cl)nc1)=C\CC[C@@]1(C)O[C@@H]21,1210 nM,3.5 µM
O=[N+]([O-])c1ccc2c(c1)C(c1ccccc1Cl)=Nc1cn[nH]c1N2,12500 nM,> 25 µM

# Source: PubChem BioAssay (NCI)
